Experimental findings from the OligoGym collection are described below.

HELM strings list units from the 5' end as sugar, base in round brackets, then linkage (d deoxyribose, r ribose, m 2'-O-methyl, p phosphodiester). Strings are as the collection lists them, not checked against the first reports. ss, as = sense and antisense strand; [lna] = locked nucleic acid (LNA); [s4r] = 4'-thioribose; [fl2r] = 2'-fluoro
Note: test system not given here.

The conditions of the data set: siRNA.
In turn, “RNA1{r(C)p.r(U)p.r(U)p.r(A)p.r(C)p.r(G)p.r(C)p.r(U)p.r(G)p.r(A)p.r(G)p.r(U)p.r(A)p.r(C)p.r(U)p.r(U)p.r(C)p.r(G)p.r(A)p.r(T)p.r(T)}|RNA2{r(T)p.r(C)p.r(G)p.r(A)p.r(A)p.r(G)p.r(U)p.[lna](A)p.r(C)p.r(U)p.r(C)p.r(A)p.r(G)p.r(C)p.r(G)p.r(U)p.r(A)p.r(A)p.r(G)p.[lna](T)p.[lna](T)}$$$RNA1{StrandType:ss}|RNA2{StrandType:as}$” returned a target mRNA knockdown of 90%.

“RNA1{m(G)p.r(A)p.m(G)p.r(A)p.m(G)p.r(A)p.m(G)p.r(A)p.m(C)p.r(G)p.m(G)p.r(U)p.m(G)p.r(G)p.m(A)p.r(A)p.m(G)p.r(A)p.m(A)p.r(T)p.r(T)}|RNA2{r(U)p.r(U)p.r(C)p.r(U)p.r(U)p.r(C)p.r(C)p.r(A)p.r(C)p.r(C)p.m(G)p.r(U)p.r(C)p.r(U)p.r(C)p.r(U)p.r(C)p.r(U)p.r(C)p.r(T)p.r(T)}$$$RNA1{StrandType:ss}|RNA2{StrandType:as}$” came in with a target mRNA knockdown of 56%.

The substance “RNA1{r(A)p.r(G)p.r(C)p.r(C)p.r(U)p.r(C)p.r(C)p.r(A)p.r(A)p.r(A)p.r(C)p.r(U)p.r(C)p.r(C)p.r(U)p.r(A)p.r(G)p.r(C)p.r(U)p.r(T)p.r(T)}|RNA2{r(A)p.r(G)p.r(C)p.m(U)p.r(A)p.r(G)p.r(G)p.r(A)p.r(G)p.r(U)p.r(U)p.m(U)p.r(G)p.r(G)p.r(A)p.r(G)p.r(G)p.r(C)p.r(U)p.r(T)p.r(T)}$$$RNA1{StrandType:ss}|RNA2{StrandType:as}$” registered a target mRNA knockdown of 70%.

Take “RNA1{r(C)p.r(G)p.r(U)p.r(A)p.r(C)p.r(G)p.r(C)p.r(G)p.r(G)p.r(A)p.r(A)p.r(U)p.r(A)p.r(C)p.r(U)p.r(U)p.r(C)p.r(G)p.r(A)p.r(T)p.r(T)}|RNA2{[s4r](U)p.[s4r](C)p.r(G)p.r(A)p.r(A)p.r(G)p.r(U)p.r(A)p.r(U)p.r(U)p.r(C)p.r(C)p.r(G)p.r(C)p.r(G)p.r(U)p.r(A)p.r(C)p.r(G)p.r(T)p.r(T)}$$$RNA1{StrandType:ss}|RNA2{StrandType:as}$”: the target mRNA knockdown worked out at 95%.

In turn, “RNA1{r(C)p.r(U)p.[fl2r](A)p.r(G)p.r(A)p.r(G)p.r(G)p.r(A)p.r(U)p.r(C)p.r(U)p.r(U)p.r(G)p.r(A)p.r(A)p.r(G)p.r(A)p.r(C)p.r(C)p.r(T)p.r(T)}|RNA2{r(G)p.r(G)p.r(U)p.r(C)p.r(U)p.r(U)p.r(C)p.r(A)p.r(A)p.r(G)p.r(A)p.r(U)p.r(C)p.r(C)p.r(U)p.r(C)p.[fl2r](U)p.r(A)p.r(G)p.r(T)p.r(T)}$$$RNA1{StrandType:ss}|RNA2{StrandType:as}$” yielded a target mRNA knockdown of 82%.

Substance “RNA1{m(U)p.r(A)p.r(G)p.r(C)p.r(C)p.r(A)p.r(G)p.r(A)p.r(G)p.r(C)p.r(C)p.r(A)p.r(A)p.r(A)p.r(G)p.r(A)p.r(A)p.r(G)p.r(C)p.r(T)p.r(T)}|RNA2{r(G)p.r(C)p.r(U)p.r(U)p.r(C)p.r(U)p.r(U)p.r(U)p.r(G)p.r(G)p.r(C)p.r(U)p.r(C)p.r(U)p.r(G)p.r(G)p.r(C)p.m(U)p.r(A)p.r(T)p.r(T)}$$$RNA1{StrandType:ss}|RNA2{StrandType:as}$” gave a target mRNA knockdown of 82%.

In the case of “RNA1{m(C)p.r(U)p.m(C)p.r(C)p.m(C)p.r(C)p.m(A)p.r(G)p.m(U)p.r(C)p.m(U)p.r(C)p.m(U)p.r(C)p.m(U)p.r(U)p.m(A)p.r(A)p.m(A)p.r(T)p.r(T)}|RNA2{r(U)p.r(U)p.r(U)p.r(A)p.r(A)p.r(G)p.r(A)p.r(G)p.r(A)p.r(G)p.r(A)p.r(C)p.r(U)p.r(G)p.r(G)p.r(G)p.r(G)p.r(A)p.r(G)p.r(T)p.r(T)}$$$RNA1{StrandType:ss}|RNA2{StrandType:as}$”, the target mRNA knockdown was 51%.

Substance “RNA1{m(A)p.r(G)p.m(A)p.r(A)p.m(G)p.r(U)p.m(A)p.r(C)p.m(C)p.r(A)p.m(G)p.r(G)p.m(A)p.r(G)p.m(G)p.r(C)p.m(G)p.r(U)p.m(U)p.r(T)p.r(T)}|RNA2{r(A)p.r(A)p.r(C)p.r(G)p.r(C)p.r(C)p.r(U)p.r(C)p.r(C)p.r(U)p.r(G)p.r(G)p.r(U)p.r(A)p.r(C)p.r(U)p.r(U)p.r(C)p.r(U)p.r(T)p.r(T)}$$$RNA1{StrandType:ss}|RNA2{StrandType:as}$” displayed a target mRNA knockdown of 24%.

In the case of “RNA1{r(U)p.r(C)p.r(C)p.r(U)p.r(C)p.r(G)p.r(U)p.r(C)p.r(G)p.r(U)p.r(C)p.r(U)p.r(G)p.r(U)p.r(U)p.r(C)p.[fl2r](U)p.r(A)p.r(A)p.r(T)p.r(T)}|RNA2{r(U)p.[fl2r](U)p.r(A)p.r(G)p.r(A)p.r(A)p.[fl2r](C)p.r(A)p.r(G)p.r(A)p.r(C)p.r(G)p.r(A)p.r(C)p.r(G)p.r(A)p.r(G)p.r(G)p.r(A)p.r(T)p.r(T)}$$$RNA1{StrandType:ss}|RNA2{StrandType:as}$”, the target mRNA knockdown is 74%.

“RNA1{r(U)p.r(C)p.r(C)p.r(C)p.r(U)p.r(U)p.r(C)p.r(C)p.r(A)p.r(C)p.r(C)p.r(G)p.r(C)p.r(C)p.r(A)p.m(U)p.r(A)p.r(U)p.r(U)p.r(T)p.r(T)}|RNA2{r(A)p.r(A)p.m(U)p.r(A)p.r(U)p.r(G)p.r(G)p.r(C)p.r(G)p.r(G)p.r(U)p.r(G)p.r(G)p.r(A)p.r(A)p.r(G)p.r(G)p.r(G)p.r(A)p.r(T)p.r(T)}$$$RNA1{StrandType:ss}|RNA2{StrandType:as}$” displayed a target mRNA knockdown of 49%.

“RNA1{r(C)p.r(G)p.r(U)p.r(A)p.r(C)p.r(G)p.r(C)p.r(G)p.r(G)p.r(A)p.r(A)p.r(U)p.r(A)p.r(C)p.r(U)p.r(U)p.r(C)p.r(G)p.r(A)p.r(T)p.r(T)}|RNA2{r(U)p.r(C)p.r(G)p.r(A)p.r(A)p.r(G)p.[s4r](U)p.[s4r](A)p.[s4r](U)p.[s4r](U)p.[s4r](C)p.[s4r](C)p.[s4r](G)p.r(C)p.r(G)p.r(U)p.r(A)p.r(C)p.r(G)p.r(T)p.r(T)}$$$RNA1{StrandType:ss}|RNA2{StrandType:as}$” yielded a target mRNA knockdown of 36.5%.

“RNA1{r(A)p.r(A)p.r(A)p.r(C)p.r(C)p.r(U)p.r(C)p.m(A)p.r(G)p.r(C)p.r(C)p.r(C)p.r(U)p.r(A)p.r(A)p.r(C)p.r(G)p.r(G)p.r(U)p.r(T)p.r(T)}|RNA2{r(A)p.r(C)p.r(C)p.r(G)p.r(U)p.m(U)p.r(A)p.r(G)p.r(G)p.r(G)p.r(C)p.r(U)p.r(G)p.r(A)p.r(G)p.r(G)p.r(U)p.r(U)p.r(U)p.r(T)p.r(T)}$$$RNA1{StrandType:ss}|RNA2{StrandType:as}$” gave a target mRNA knockdown of 70%.

Substance “RNA1{r(G)p.r(A)p.r(G)p.r(G)p.r(A)p.m(U)p.r(G)p.r(G)p.r(A)p.r(U)p.r(U)p.r(C)p.r(G)p.m(A)p.r(C)p.r(U)p.m(U)p.r(A)p.r(G)p.r(T)p.r(T)}|RNA2{r(C)p.m(U)p.r(A)p.r(A)p.m(G)p.r(U)p.r(C)p.r(G)p.r(A)p.r(A)p.r(U)p.r(C)p.m(C)p.r(A)p.r(U)p.r(C)p.r(C)p.r(U)p.r(C)p.r(T)p.r(T)}$$$RNA1{StrandType:ss}|RNA2{StrandType:as}$” displayed a target mRNA knockdown of 91%.

“RNA1{m(G)p.r(A)p.m(A)p.r(U)p.m(A)p.r(A)p.m(C)p.r(C)p.m(U)p.r(G)p.m(A)p.r(A)p.m(C)p.r(G)p.m(U)p.r(C)p.m(A)p.r(C)p.m(C)p.r(T)p.r(T)}|RNA2{r(G)p.r(G)p.r(U)p.r(G)p.r(A)p.r(C)p.r(G)p.r(U)p.r(U)p.r(C)p.r(A)p.r(G)p.r(G)p.r(U)p.r(U)p.r(A)p.r(U)p.r(U)p.r(C)p.r(T)p.r(T)}$$$RNA1{StrandType:ss}|RNA2{StrandType:as}$” yielded a target mRNA knockdown of 17%.
